Test results from patent US7683048B2, “Polymorphis of a known thiophenecarboxylic acid dodecahydrocyclopenta (a) phenanthrenyl ester” (Novartis AG, priority 2002, dated 2010).

What was measured:
Assay type in all cases: physicochemical
[1] = Stability of crystal forms after 4 weeks at 80° C., analyzed by XRPD; details: for Crystal form found by XRPD after storage (stability): 4 weeks at 80° C.; for Conversion in the solid state on storage: stored for 4 weeks at 80° C.
Description: Samples of the compound of formula I in crystal form A, the compound of formula I in crystal form B, a mixture of both crystal forms and an amorphous form of the compound of formula I (obtained by spray drying) are stored for 4 weeks at 80° C. under different conditions and analyzed by X-ray powder diffraction (XRPD).

[2] = Heat of solution at 25° C. in acetone
Description: The heat of solution of samples of crystal forms A and B of the compound of formula I are measured at 25° C. in acetone.

[3] = Interconversion of crystal forms in the presence of solvent

Structure (SMILES): COC(=O)[C@@]1(OC(=O)c2sccc2C)[C@H](C)CC2C3C[C@H](F)C4=CC(=O)C=C[C@]4(C)[C@@]3(Cl)[C@@H](O)C[C@@]21C (stereo partly drawn) [Crystal forms A + B, 3-methylthiophene-2-carboxylic acid (6S,9R,10S,11S, 13S,16R,17R)-9-chloro-6-fluoro-11-hydroxy-17-methoxycarbonyl-10,13,16-trimethyl-3-oxo-6,7,8,9,10,11,12,13,14,15,16,17-dodecahydro-3H-cyclopenta[a]phenanthren-17-yl ester]
- Crystal form found by XRPD after storage (stability) ([1]; N2): A + B
- Crystal form found by XRPD after storage (stability) ([1]; sealed): A + B

Structure (SMILES): COC(=O)[C@@]1(OC(=O)c2sccc2C)[C@H](C)CC2C3C[C@H](F)C4=CC(=O)C=C[C@]4(C)[C@@]3(Cl)[C@@H](O)C[C@@]21C (stereo partly drawn) [Amorphous form, 3-methylthiophene-2-carboxylic acid (6S,9R,10S,11S, 13S,16R,17R)-9-chloro-6-fluoro-11-hydroxy-17-methoxycarbonyl-10,13,16-trimethyl-3-oxo-6,7,8,9,10,11,12,13,14,15,16,17-dodecahydro-3H-cyclopenta[a]phenanthren-17-yl ester]
- Conversion in the solid state on storage ([1]; solid state, listed as amorphous form): can also convert into crystal form A

Structure (SMILES): COC(=O)[C@@]1(OC(=O)c2sccc2C)[C@H](C)CC2C3C[C@H](F)C4=CC(=O)C=C[C@]4(C)[C@@]3(Cl)[C@@H](O)C[C@@]21C (stereo partly drawn) [Crystal form B, 3-methylthiophene-2-carboxylic acid (6S,9R,10S,11S, 13S,16R,17R)-9-chloro-6-fluoro-11-hydroxy-17-methoxycarbonyl-10,13,16-trimethyl-3-oxo-6,7,8,9,10,11,12,13,14,15,16,17-dodecahydro-3H-cyclopenta[a]phenanthren-17-yl ester]
- Heat of solution ([2]; listed as B): 17.9 J/g
- Crystal form found by XRPD after storage (stability) ([1]; 75% r.h. (relative humidity), open): A + B
- Crystal form found by XRPD after storage (stability) ([1]; N2 + 2% water): A + B
- Crystal form found by XRPD after storage (stability) ([1]; O2): A + B
- Conversion in the solid state on storage ([1]; solid state, listed as crystal form B): can convert at least partially in the solid state into crystal form A
- Conversion of crystal form in the presence of isopropanol ([3]; in the presence of isopropanol): converts to crystal form A

Structure (SMILES): COC(=O)[C@@]1(OC(=O)c2sccc2C)[C@H](C)CC2C3C[C@H](F)C4=CC(=O)C=C[C@]4(C)[C@@]3(Cl)[C@@H](O)C[C@@]21C (stereo partly drawn) [Crystal form A, 3-methylthiophene-2-carboxylic acid (6S,9R,10S,11S, 13S,16R,17R)-9-chloro-6-fluoro-11-hydroxy-17-methoxycarbonyl-10,13,16-trimethyl-3-oxo-6,7,8,9,10,11,12,13,14,15,16,17-dodecahydro-3H-cyclopenta[a]phenanthren-17-yl ester]
- Heat of solution ([2]; listed as A): 29.3 J/g
- Relative thermodynamic stability (from heat of solution) ([2]; versus crystal form B): more thermodynamically stable than crystal form B
- Relative thermodynamic stability (from storage test) ([1]; solid state, versus crystal form B): more thermodynamically stable than crystal form B
- Conversion of crystal form in the presence of ethanol ([3]; in the presence of ethanol): converts to crystal form B
